# Target: T1, Chymase (Homo sapiens, UniProt P23946)
# T1 sequence (P23946 22-247): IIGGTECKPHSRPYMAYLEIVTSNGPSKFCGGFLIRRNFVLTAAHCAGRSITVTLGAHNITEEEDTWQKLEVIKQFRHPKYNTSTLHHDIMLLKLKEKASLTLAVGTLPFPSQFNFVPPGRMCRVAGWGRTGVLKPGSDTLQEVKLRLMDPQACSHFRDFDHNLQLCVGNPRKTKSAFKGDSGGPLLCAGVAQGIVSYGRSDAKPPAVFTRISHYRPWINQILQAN
# Assay: In vitro assay for inhibition of Chymase (rhodamine 110 peptide substrate, fluorescence)
# Format: biochemical
# Conditions: 500 pM chymase, 100 nM substrate, 100 μM TCEP, 1% DMSO, 28° C., 1 hour
# Procedure: IN VITRO ASSAY FOR INHIBITION OF CHYMASE
# Chymase assays were performed in a total volume of 15 μL in Corning black opaque 384-well microtiter plates with a non-binding surface (Corning, N.Y.). The assay buffer was comprised of 20 mM Tris HCl pH 8.0, 50 mM NaCl, 0.01% CHAPS. The test compounds were serially diluted 3-fold with neat DMSO in a 96-well polypropylene plate from a 10 mM DMSO stock to give the 10 point dose response curve. 3 μL of the resulting DMSO solution were transferred to a 384-well polypropylene plate in duplicate, and 37 μL of assay buffer was added. Chymase was added to the assay plate in 3 uL of assay buffer followed by 2 uL of the appropriate compound dilution using a PlateMate Plus (Matrix Technologies Corp., Hudson, N.H.). The reaction was initiated by the addition of 10 uL rhodamine 110, bis-(succinoyl-L-alanyl-L-alanyl-L-prolyl-L-phenylalanylamide) (American Peptides, Sunnyvale, Calif.) in assay buffer containing 150 μM tris(2-carboxyethyl)phosphine (TCEP, Pierce Chemical, Rockford, Ill.) using a Multidrop (Thermo Electron Corp., Waltham, Mass.). Final assay concentrations were 500 pM chymase, 100 nM substrate, 100 μM TCEP, and 1% DMSO. The plates were incubated at 28° C. and 80% humidity for 1 hour, at which time the fluorescence was read on a Viewlux 1430 Microplate Imager (Perkin Elmer Life Sciences, Boston, Mass.) with 485 nm excitation, 530 nm emission, and a fluorescein dichroic mirror. The percentage of control values were calculated relative to assay blanks containing complete reaction minus chymase and a 100% control containing assay buffer with 1% DMSO in place of compound. IC50 values were obtained by fitting the data using XLFit4 (IDBS Software).
row,Compound,IC50 [nM]
1,"Cc1cc(C)c2c(Cn3c(=O)n([C@H](CC(=O)O)c4cccc(Cl)c4)c4nc(C)ccc43)nsc2c1 [(R)-3-(3-Chloro-phenyl)-3-[1-(4,6-dimethyl-1,2-benzisothiazol-3-ylmethyl)-5-methyl-2-oxo-1,2-dihydro-imidazo[4,5-b]pyridin-3-yl]-propionic acid]",6.26
2,"CCC[C@@H](CC(=O)O)n1c(=O)n(Cc2nsc3cc(C)cc(C)c23)c2ccc(C)nc21 [(S)-3-[1-(4,6-Dimethyl-1,2-benzisothiazol-3-ylmethyl)-5-methyl-2-oxo-1,2-dihydro-imidazo[4,5-b]pyridin-3-yl]-hexanoic acid]",3.4
3,"CCCC(CC(=O)O)n1c(=O)n(Cc2cn(C)c3cccc(C)c23)c2ccc(C#N)nc21 (stereo not drawn) [3-[5-Cyano-1-(1,4-dimethyl-1H-indol-3-ylmethyl)-2-oxo-1,2-dihydro-imidazo[4,5-b]pyridin-3-yl]-hexanoic acid]",2.2
4,"COc1ccc2c(n1)n([C@H](CC(=O)O)c1ccccc1)c(=O)n2Cc1cn(C)c2cccc(C)c12 [(R)-3-[1-(1,4-Dimethyl-1H-indol-3-ylmethyl)-5-methoxy-2-oxo-1,2-dihydro-imidazo[4,5-b]pyridin-3-yl]-3-phenyl-propionic acid]",2.05
5,"CCC[C@@H](CC(=O)NS(C)(=O)=O)n1c(=O)n(Cc2cn(C)c3cccc(C)c23)c2cccnc21 [N-{(S)-3-[1-(1,4-Dimethyl-1H-indol-3-ylmethyl)-2-oxo-1,2-dihydro-imidazo[4,5-b]pyridin-3-yl]-hexanoyl}-methanesulfonamide]",11.8
6,"CCCC(CC(=O)O)n1c(=O)n(Cc2cn(C)c3cc(C)cc(C)c23)c2ccc(C(N)=O)nc21 (stereo not drawn) [3-[5-Carbamoyl-2-oxo-1-(1,4,6-trimethyl-1H-indol-3-ylmethyl)-1,2-dihydro-imidazo[4,5-b]pyridin-3-yl]-hexanoic acid]",1.93
7,"Cc1ccc2c(n1)n([C@H](CC(=O)O)c1cccc(Cl)c1)c(=O)n2Cc1cn(C)c2cccc(C)c12 [(R)-3-(3-Chloro-phenyl)-3-[1-(1,4-dimethyl-1H-indol-3-ylmethyl)-5-methyl-2-oxo-1,2-dihydro-imidazo[4,5-b]pyridin-3-yl]-propionic acid]",7.07
8,"Cc1cc(C)c2c(Cn3c(=O)n([C@H](CC(=O)O)c4ccc(Cl)cc4)c4nc(C)ccc43)nsc2c1 [(R)-3-(4-Chloro-phenyl)-3-[1-(4,6-dimethyl-1,2-benzisothiazol-3-ylmethyl)-5-methyl-2-oxo-1,2-dihydro-imidazo[4,5-b]pyridin-3-yl]-propionic acid]",0.624
9,"Cc1cccc2c1c(Cn1c(=O)n([C@H](CC(=O)O)c3ccccc3)c3nc(C#N)ccc31)cn2C [(R)-3-[5-Cyano-1-(1,4-dimethyl-1H-indol-3-ylmethyl)-2-oxo-1,2-dihydro-imidazo[4,5-b]pyridin-3-yl]-3-phenyl-propionic acid]",1.5
10,"CCC[C@@H](CC(=O)O)n1c(=O)n(Cc2cn(C)c3cccc(C)c23)c2ncccc21 [(S)-3-[3-(1,4-Dimethyl-1H-indol-3-ylmethyl)-2-oxo-2,3-dihydro-imidazo[4,5-b]pyridin-1-yl]-hexanoic acid]",8.86
11,"CCCC(CC(=O)O)n1c(=O)n(Cc2cn(C)c3cc(C)cc(C)c23)c2ccc(C#N)nc21 (stereo not drawn) [3-[5-Cyano-2-oxo-1-(1,4,6-trimethyl-1H-indol-3-ylmethyl)-1,2-dihydro-imidazo[4,5-b]pyridin-3-yl]-hexanoic acid]",1.06
12,"COc1ccc([C@@H](CC(=O)O)n2c(=O)n(Cc3cn(C)c4cccc(C)c34)c3ccc(C)nc32)cc1 [(R)-3-[1-(1,4-Dimethyl-1H-indol-3-ylmethyl)-5-methyl-2-oxo-1,2-dihydro-imidazo[4,5-b]pyridin-3-yl]-3-(4-methoxy-phenyl)-propionic acid]",0.455
13,"Cc1ccc2c(n1)n([C@H](CC(=O)O)c1ccccc1)c(=O)n2Cc1cn(C)c2cccc(C)c12 [(R)-3-[1-(1,4-Dimethyl-1H-indol-3-ylmethyl)-5-methyl-2-oxo-1,2-dihydro-imidazo[4,5-b]pyridin-3-yl]-3-phenyl-propionic acid]",2.52
14,"Cc1cc(C)c2c(Cn3c(=O)n([C@H](CC(=O)O)c4ccccc4)c4ncccc43)nsc2c1 [(R)-3-[1-(4,6-Dimethyl-benzo[d]isothiazol-3-ylmethyl)-2-oxo-1,2-dihydro-imidazo[4,5-b]pyridin-3-yl]-3-phenyl-propionic acid]",4.23
15,"CCC[C@@H](CC(=O)NS(=O)(=O)c1cn(C)cn1)n1c(=O)n(Cc2cn(C)c3cccc(C)c23)c2cccnc21 [1-Methyl-1H-imidazole-4-sulfonic acid {(S)-3-[1-(1,4-dimethyl-1H-indol-3-ylmethyl)-2-oxo-1,2-dihydro-imidazo[4,5-b]pyridin-3-yl]-hexanoyl}-amide]",6.71
16,"CCC[C@@H](CC(=O)NS(=O)(=O)CC)n1c(=O)n(Cc2cn(C)c3cccc(C)c23)c2cccnc21 [Ethanesulfonic acid {(S)-3-[1-(1,4-dimethyl-1H-indol-3-ylmethyl)-2-oxo-1,2-dihydro-imidazo[4,5-b]pyridin-3-yl]-hexanoyl}-amide]",7.48
17,"CCC[C@@H](CC(=O)O)n1c(=O)n(Cc2cn(C)c3cccc(C)c23)c2cnccc21 [(S)-3-[3-(1,4-Dimethyl-1H-indol-3-ylmethyl)-2-oxo-2,3-dihydro-imidazo[4,5-c]pyridin-1-yl]-hexanoic acid]",18.9
18,"Cc1cccc2c1c(Cn1c(=O)n([C@H](CC(=O)O)c3ccccc3)c3nc(C(C)C)ncc31)cn2C [(R)-3-[7-(1,4-Dimethyl-1H-indol-3-ylmethyl)-2-isopropyl-8-oxo-7,8-dihydro-purin-9-yl]-3-phenyl-propionic acid]",12.6
19,"CCC[C@@H](CC(=O)O)n1c(=O)n(Cc2cn(C)c3cccc(C)c23)c2cc(C)cnc21 [(S)-3-[1-(1,4-Dimethyl-1H-indol-3-ylmethyl)-6-methyl-2-oxo-1,2-dihydro-imidazo[4,5-b]pyridin-3-yl]-hexanoic acid]",3.46
20,"Cc1cc(C)c2c(Cn3c(=O)n([C@H](CC(=O)O)c4ccc(F)cc4)c4nc(C#N)ccc43)cn(C)c2c1 [(R)-3-[5-Cyano-2-oxo-1-(1,4,6-trimethyl-1H-indol-3-ylmethyl)-1,2-dihydro-imidazo[4,5-b]pyridin-3-yl]-3-(4-fluoro-phenyl)-propionic acid]",0.23
21,"Cc1ccc2c(n1)n([C@H](CC(=O)O)c1cccnc1)c(=O)n2Cc1cn(C)c2cccc(C)c12 [(R)-3-[1-(1,4-Dimethyl-1H-indol-3-ylmethyl)-5-methyl-2-oxo-1,2-dihydro-imidazo[4,5-b]pyridin-3-yl]-3-pyridin-3-yl-propionic acid]",10.7
22,"Cc1cc(C)c2c(Cn3c(=O)n([C@H](CC(=O)O)c4ccccc4)c4ncccc43)cn(C)c2c1 [(R)-3-[2-Oxo-1-(1,4,6-trimethyl-1H-indol-3-ylmethyl)-1,2-dihydro-imidazo[4,5-b]pyridin-3-yl]-3-phenyl-propionic acid]",0.61
23,"CCC[C@@H](CC(=O)O)n1c(=O)n(Cc2cn(C)c3cc(C)cc(C)c23)c2ccc(C)nc21 [(S)-3-[5-Methyl-2-oxo-1-(1,4,6-trimethyl-1H-indol-3-ylmethyl)-1,2-dihydro-imidazo[4,5-b]pyridin-3-yl]-hexanoic acid]",0.81
24,"Cc1cc(C)c2c(Cn3c(=O)n([C@H](CC(=O)O)c4ccc(Cl)cc4)c4nc(C)ccc43)cn(C)c2c1 [(R)-3-(4-Chloro-phenyl)-3-[5-methyl-2-oxo-1-(1,4,6-trimethyl-1H-indol-3-ylmethyl)-1,2-dihydro-imidazo[4,5-b]pyridin-3-yl]-propionic acid]",0.2
25,"Cc1ccc2c(n1)n([C@H](CC(=O)O)c1ccc(Cl)cc1)c(=O)n2Cc1cn(C)c2cccc(C)c12 [(R)-3-(4-Chloro-phenyl)-3-[1-(1,4-dimethyl-1H-indol-3-ylmethyl)-5-methyl-2-oxo-1,2-dihydro-imidazo[4,5-b]pyridin-3-yl]-propionic acid]",0.255
26,"Cc1cc(C)c2c(Cn3c(=O)n([C@H](CC(=O)O)c4ccc(F)cc4)c4nc(C(N)=O)ccc43)cn(C)c2c1 [(R)-3-[5-Carbamoyl-2-oxo-1-(1,4,6-trimethyl-1H-indol-3-ylmethyl)-1,2-dihydro-imidazo[4,5-b]pyridin-3-yl]-3-(4-fluoro-phenyl)-propionic acid]",0.395
27,"COc1ccc2c(n1)n([C@H](CC(=O)O)c1ccccc1)c(=O)n2Cc1cn(C)c2cc(C)cc(C)c12 [(R)-3-[5-Methoxy-2-oxo-1-(1,4,6-trimethyl-1H-indol-3-ylmethyl)-1,2-dihydro-imidazo[4,5-b]pyridin-3-yl]-3-phenyl-propionic acid]",0.605
